Counter-ions that a name gives are not always drawn.
How the values were obtained:
HIV protease = target: T1, HIV protease (Human immunodeficiency virus type 1 group M subtype B, UniProt P04585); experiment: HIV Protease Assay; type: biochemical; conditions: pH 5.5, 10 μM inhibitor, 4% DMSO, 450 μM substrate, pH 5.5, 30 minutes at 37° C., RP-HPLC; read-out: HIV Protease % Inhibition at 10 μM
T1 construct: and purified protease
How it was run: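 Purified protease cleaved 450 μM octapeptide substrate in 50 mM sodium acetate pH 5.5 with 100 μg/ml BSA for 30 minutes at 37° C; product analyzed by reverse-phase HPLC at UV220 after H3PO4 quench. Inhibitors tested at final 10 μM with 4% DMSO.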

[1] = test system: RF strain of HIV (CEM-SS cells); experiment: Cell Culture Anti-HIV Activity (cell viability, formazan); type: cell-based; conditions: Human immunodeficiency virus 1, CEM-SS, 144 h, CEM-SS cells, RF strain of HIV, multiplicity of infection 0.04, 6 days at 37° C., 450 nm; read-out: HIV (CEM Cells) IC50
Protocol: The antiviral activity of aminediol inhibitors of the present invention was evaluated by a microculture method which determines the increase in cell viability of an infected culture when a drug is added. The assay depends on the metabolic reduction of tetrazolium reagent by viable cells to yield a soluble colored formazan product.
The assay was performed as follows: suspensions of CEM-SS cells (5000/well) were infected with the RF strain of HIV at a multiplicity of infection at 0.04 in a 96-well plate. The compounds of the present invention listed in the following Table 1, serially diluted in half-log fashion, were added to the infected and uninfected control cells. Untreated (infected and uninfected) cells were included as controls. Following incubation for 6 days at 37° C., viable cells in each well were quantitated by the visible light absorbance at 450 nm.
The IC50 was calculated as the concentration of drug that increased the formazan production in virally infected cells to 50% of that produced by uninfected cells in the absence of drug.

inhibition at 10 µM (HIV protease)	Compound	IC50 [1]
100%	Cc1ccc(N(C)CCOc2ccc(C[C@H](NC(=O)OC(C)(C)C)[C@H](O)CNC[C@@H](O)[C@H](Cc3ccccc3)NC(=O)OC(C)(C)C)cc2)cc1 [Compound 217, [1S-[1R*,2S*(2S*,3R*)]]-[3-[[3-[[(1,1-Dimethylethoxy)carbonyl]amino]-2-hydroxy-4-[4-[2-methyl(4-methylphen-yl)amino]-ethoxyl]phenyl]butyl]amino]-2-hydroxy-1-(phenylmethyl) propyl]carbamic acid, 1,1-dimethylethyl ester]	480 nM
100%	CC(C)[C@H](NC(=O)OCc1ccccc1)C(=O)N[C@@H](Cc1ccccc1)[C@H](O)CNC[C@@H](O)[C@H](Cc1ccccc1)NC(=O)OC(C)(C)C [Compound 52, [S-[1R*,2S*(2S*, 3R*)]-N-[3-[[3-[[(1,1-Dimethylethoxy)carbonyl]amino]-2-hydroxy-4-phenylbutyl]-amino]-2-hydroxy-1-(phenylmethyl)propyl-N^2-[(phenylmethoxy)carbonyl]-L-valinamide]	200 nM
96%	CC(C)(C)OC(=O)N[C@@H](Cc1ccccc1)[C@H](O)CNC[C@@H](O)[C@H](Cc1ccccc1)NC(=O)OC1CCS(=O)(=O)C1 (stereo partly drawn) [Compound 360, [1S-(1R*,2S*)]-[Iminobis[2-hydroxy-1-(phenylmethyl)-3,1-propanediyl)]bis[carbamic acid], 1,1-dimethylethyl tetrahydro-1,1-dioxo-3-thienyl ester]	450 nM
100%	CC(C)C[C@H](N)C(=O)N[C@H](C(=O)N[C@@H](Cc1ccccc1)[C@H](O)CNC[C@@H](O)[C@H](Cc1ccccc1)NC(=O)OC(C)(C)C)C(C)C [Compound 98, [S-[1R*,2S*(2S*,3R*)]-N-[3-[[3-[[(1,1-Dimethylethoxy)carbonyl]amino]-2-hydroxy-4-phenylbutyl]amino]-2-hydroxy-1(phenylmethyl)propyl]-N^2-(L-leucyl)-L-valinamide, fumarate salt]	1300 nM
100%	CC(C)(CO)OC(=O)N[C@@H](Cc1ccccc1)[C@H](O)CNC[C@@H](O)[C@H](Cc1ccccc1)NC(=O)[C@](C)(O)C(C)(C)C [Compound 333, [1S-[1R*,2S*[2S*3R*(S*)]]]-[3-[[3-[(2-Hydroxy-2,3,3-trimethyl-1-oxobutyl)amino]-2-hydroxy-4-phenylbutyl]amino-2-hydroxy-1-(phenylmethyl)propyl]carbamic acid, 2-hydroxy-1,1-dimethylethyl ester]	150 nM
99%	CC(C)(C)OC(=O)N[C@@H](Cc1ccccc1)[C@H](O)CNC[C@@H](O)[C@H](Cc1ccccc1)NC(=O)[C@@H](NC(=O)OCc1nc2ccccc2o1)C(C)(C)C [Compound 257, [S-[1R*,2S*(2S*,3R*)]]-[2,2-Dimethyl-1-[[[3-[[3-[[(1,1-dimethylethoxy)carbonyl]amino]-2-hydroxy-4-phenylbutyl]-amino]-2-hydroxy-1-(phenylmethyl)propyl]amino]-carbonyl]propyl]carbamic acid, (2-benzoxazolyl)methyl ester]	30 nM
65%	CC(C)(C)OC(=O)N[C@@H](Cc1ccccc1)[C@H](O)CNC[C@@H](O)[C@H](Cc1ccccc1)NC(=O)OC(C)(C)CCCNCc1ccccc1 [Compound 153, [1S-(1R*,2S*)]-[Iminobis[2-hydroxy-1-(phenylmethyl)-3,1-propanediyl]biscarbamic acid, 1,1-dimethylethyl 1,1-dimethyl-4-[(phenylmethyl)-amino]butyl ester]	> 550 nM
99%	CC(C)(C)[C@@](C)(O)C(=O)N[C@@H](Cc1ccccc1)[C@H](O)CNC[C@@H](O)[C@H](Cc1ccccc1)NC(=O)[C@](C)(O)C(C)(C)C [Compound 344, [2R-[R*(R*,S*)]]-N,N'-[Iminobis[2-hydroxy-l-(phenylmethyl)-3,1-propanediyl]]bis[2-hydroxy-2,3,3-trimethylbutaneamide]]	30 nM

— US5760036A, “Aminediol protease inhibitors” (E. R. Squibb & Sons, Inc., priority 1995, dated 1998)
